Measurements published in patent publication US20060099586A1, “Eef1a2 for use in the prognosis, diagnosis, and treatment of cancer” (priority 2002, published 2006).

Experiments:
[1] = system: NIH 3T3 cells ectopically expressing EEF1A2; experiment: Drug-induced apoptosis in NIH 3T3 cells ectopically expressing EEF1A2; assay type: cell-based, mouse
From the text: Patients with tumor samples that are positive for EEF1A2 are expected to survive for a shorter period of time as compared to patients with tumor sample negative for EEF1A2. Prognostic information relating to EEF1A2-gene amplification and/or EEF1A2 protein expression can be used to enhance clinical decision-making and to select appropriate treatment regimes. NIH 3T3 cells ectopically expressing EEF1A2 are resistant to the apoptosis-induced by cisplatin and staurosporine. Further, mice lacking EEF1A2 show increased lymphoid apoptosis. Accordingly, it is believed that EEF1A2 modulates the sensitivity of cancer cells to selected treatments.

EEF1A2 mRNA = EEF1A2 mRNA levels after antisense oligonucleotide treatment of human Ramos cells; assay type: cell-based
From the text: (§1) Antisense inactivation of EEF1A2 was achieved using two EEF1A2-specific phosphorothioated antisense oligonucleotides. Phosphorothioated DNA oligonucleotides were used as these modified oligonucleotides are non-toxic in humans, nuclease resistant, stable in vivo and in vitro, are readily taken up by cells and activate rapid degradation of the mRNA target (Gewirtz et al. Blood 1998 92:712-736; Agrawal et al. Proc. Natl. Acad. Sci. USA 1990 87:1401-1405). However, as will be understood by those of skill in the art upon reading this disclosure, other modifications well known to those skilled in the art can be used.
(§2) Both antisense oligonucleotides decreased EEF1A2 mRNA levels in human Ramos cells. mRNA levels of EEF1A1 were not decreased by administration of these antisense oligonucleotides. A control sequence, GGTTGCTGTGGGCTTGAGT (SEQ ID NO:4) had no effect on mRNA levels of EEF1A2 or EEF1A1 in the human Ramos cells.

EEF1A1 mRNA = EEF1A1 mRNA levels after antisense oligonucleotide treatment of human Ramos cells; assay type: cell-based
From the text: as §1, §2

Compound	apoptosis induced by the drug [1]	effect on EEF1A2 mRNA levels (EEF1A2 mRNA)	effect on EEF1A1 mRNA levels (EEF1A1 mRNA)
N.N.[Cl][Pt][Cl] [cisplatin]	resistant		
CN[C@@H]1C[C@H]2O[C@@](C)([C@@H]1OC)n1c3ccccc3c3c4c(c5c6ccccc6n2c5c31)C(=O)NC4 [staurosporine]	resistant		
SEQ ID NO:4: control sequence GGTTGCTGTGGGCTTGAGT (listed as DNA, chemistry not given here)		no effect	no effect
